In data set [1] the test system is N2a tumor-bearing A/J mice. As to the kind of experiment: Ex vivo luciferase expression after intravenous injection of mRNA polyplexes. It is filed as in vivo.
Description: Neuro2a cells (10^6 cells/150 μL PBS) were inoculated subcutaneously into the left flank of 6-week-old female A/J mice (Envigo RMS GmbH, Dusseldorf, Germany). Mice were randomly divided into groups of three (in the case of mRNA LNPs) or five (in the case of mRNA polyplexes) and were housed in isolated ventilated cages under specific pathogen free conditions with a 12 h day/night interval, and food and water ad libitum. Weight and general well-being were monitored continuously. Tumor size was measured with a caliper and determined by formula: a*b^2/2 (a=longest side of the tumor; b=widest side vertical to a). When tumors reached a size of 250-500 mm3, the experiments were performed by intravenous tail vein injection of polyplexes or LNPs formed as described in 6.1 and 6.3, containing 1 μg, 3 μg or 10 μg of stabilized firefly luciferase encoding mRNA (CleanCap™ FLuc mRNA (5moU); Trilink Biotechnologies, San Diego, CA, USA) in 150 μL HBG. Polyplexes containing 10 μg mRNA were dialyzed for 1 h at 4° C. against HBG (dialysis membrane MWCO 100-500 Da; Spectra/Por®, Carl Roth, Karlsruhe, Germany) prior to application to remove small amounts of ethanol. […] The luciferase gene expression was determined as described above and is presented as relative light units (RLU) per gram (g) tumor/organ.
To evaluate luciferase mRNA delivery by an ex vivo luciferase gene expression assay, organ and tumor tissues were homogenized in Luciferase Cell Culture Lysis Reagent 1× (Promega, Mannheim, Germany), supplemented with 1% (v/v) protease and phosphatase inhibitor cocktail (Sigma-Aldrich, Munich, Germany) using a tissue and cell homogenizer (FastPrep®-24, MP Biomedicals, USA). […] Luciferase activity in 25 μL supernatant was measured in a Centro LB 960 plate reader luminometer (Berthold Technologies, Bad Wildbad, Germany) for 10 sec after addition of 100 μL/well of a LAR buffer solution (20 mM glycylglycine, 1.0 mM MgCl2, 0.10 mM EDTA, 3.3 mM DTT, 0.55 mM ATP, and 0.27 mM coenzyme A; pH 8-8.5) supplemented with 5% (v/v) of a mixture of 10 mM luciferin and 29 mM glycylglycine.
The next data set has as its system HeLa cells. As to the kind of experiment: CellTiterGlo assay (relative metabolic activity). The data set is classed as cell-based. As to conditions: mRNA polyplexes, 25% of the standard mRNA dose of 250 ng/well, vs 1621. As to the method: HeLa cells were seeded 24 h prior to transfection (5000 cells/well) in 96-well plates. Immediately prior to transfection, the medium was replaced with suitable amounts of fresh medium containing 10% (v/v) FBS to reach a final volume of 100 μL during transfection. The nanoparticles were prepared as described in section 6.1 and transfected with indicated doses. The medium was removed at 24 h after transfection, and 25 μL of fresh, pre-warmed medium as well as 25 μL of CellTiterGlo® Reagent (Promega, Mannheim, Germany) were added to each well [S. Berger et al., Biomacromolecules 2021, 22, 1282; A. Krhač Levačić et al., J Controlled Release 2021, 339, 27]. After incubation on an orbital shaker for 30 min at RT, luminescence was recorded using a Centro LB 960 plate reader luminometer (Berthold Technologies, Bad Wildbad, Germany). The luminescent signals (in RLU) of the samples were normalized to the luminescent signal of the negative control (HBG buffer-treated control cells). Results were presented as relative metabolic activity related to the negative control. Experiments were performed as triplicates.
Background: In ATP-based viability assays light output follows the ATP content of the culture.

The nature of data set [2]: Particle size, polydispersity and zeta potential measurement (DLS, ELS). The data set is classed as physicochemical. Details: Zeta / Size: unit not given here. As to the method: 6.6 Particle Size and Zeta Potential Measurement for pDNA, mRNA, siRNA, Cas9 mRNA/sgRNA and Cas9 mRNA/sgRNA/ssDNA Polyplexes as Well as mRNA LNPs
Measurements of size and zeta potential were performed with a Zetasizer Nano ZS (Malvern Instruments, Malvern, Worcestershire, U.K.) in a folded capillary cell (DTS1070) by dynamic and electrophoretic laser-light scattering (DLS, ELS). […] Samples were measured three times with six sub runs per measurement. For measurement of the zeta potential, all samples were diluted to 800 μL with HBG or HEPES (for siRNA polyplexes) directly before measurement. Parameters were identical to the size measurement apart from an equilibration time of 60 sec. Three measurements with 15 sub runs lasting 10 sec each were performed, and zeta potentials were calculated by the Smuchowski equation.

Data set [3] deals with N2a cells. As to the kind of experiment: Co-delivery efficiency of mRNA/pDNA polyplexes by flow cytometry. As to conditions: N/P 18, 25 and 50 ng combined nucleic acid/well. The data set is classed as cell-based, murine. As to the method:
CleanCap® mCherry mRNA (5moU) (Trilink Biotechnologies, San Diego, CA, USA) and pEGFP-N1 pDNA (Clontech Laboratories, Inc. (now Takara Bio USA, Inc., San Jose, CA, USA)) at a fixed weight ratio of 1:1 were mixed and diluted in HBG. Calculated amounts of aminolipid at indicated N/P (nitrogen/phosphate) ratios (see above) were diluted in separate tubes of HBG. Equal volumes of nucleic acid solution and aminolipid solution were mixed by rapid pipetting and incubated 40 min at RT in a closed Eppendorf reaction tube. The final concentration of nucleic acid in the polyplex solution was 5 μg/mL (2.5 μg/mL mCherry mRNA plus 2.5 μg/mL pEGFP-N1 pDNA).
mRNA/pDNA polyplex treatments were performed in triplicate in 96-well plates. N2a cells were seeded 24 h prior to transfection (10,000 cells/well). On the next day, the medium was replaced with 80 μL of fresh pre-warmed medium containing 10% (v/v) FBS. The nanoparticles were prepared as described above, and the volumes of 10 and 5 μL of polyplex solution (2.5 μg/mL mCherry mRNA and 2.5 μg/mL pEGFP-N1 pDNA) were added. 20 μL HBG buffer per well was used as negative control. After 24 h of treatment, cells were collected and re-suspended in PBS solution containing 10% (v/v) FBS (FACS buffer) for flow cytometric evaluation. All samples were analyzed by flow cytometry using a CytoFLEX S Flow Cytometer (Beckman Coulter, Brea, CA, USA). Shortly before the measurement, 1 ng/μL 4′, 6-diamidino-2-phenylindole (DAPI) was added and used to discriminate between viable and dead cells. The cellular fluorescence was assayed by excitation of DAPI at 405 nm and detection of emission at 450 nm. Only isolated viable cells were evaluated. Gates were set compared to control measurements with HBG buffer-treated cells. […] Flow cytometry data were analyzed using FlowJo™ v10.8 flow cytometric analysis software by FlowJo, LLC (Becton, Dickinson and Company, U.S.). The cellular fluorescence expression was assayed by excitation at 561 nm and 488 nm, the detection of emission at 610 nm and 530 nm for mCherry and eGFP, respectively.
Background: In flow cytometry, cells or beads pass a laser one at a time.

Data set [4] relates to N2a cells. Kind of data set: Luciferase expression assay of pDNA polyplexes in N2a cells. The note with it: for dose dependence of pDNA transfection efficiency: dose titration 200, 100, 50, 26, 14 ng pCMVLuc/well; for transfection efficiency (luciferase expression) of pDNA polyplexes: 24 h, standard pDNA dose 200 ng/well, compared with LPEI N/P 6. It is filed as cell-based, murine.

Data set [5] concerns N2a cells. Kind of data set: Luciferase expression assay of mRNA polyplexes in N2a cells. It is filed as cell-based, murine.
In another data set the test system is Huh7 cells. Kind of data set: Luciferase expression assay of pDNA polyplexes in Huh7 cells. The data set is classed as cell-based, human.
[6] abbreviates: Cas9 mRNA/sgDMDex23 polyplexes, N/P 24, combined nucleic acid 12.5 μg/mL.
The mark [7] stands for this setting: mRNA LNPs, 12.5 μg/mL CleanCap FLuc mRNA (5moU), N/P 9, molar ratios see Table A.
Setting [8] is: pDNA polyplexes, N/P 12, 10 μg/mL pCMVLuc.
[9] abbreviates: mRNA polyplexes, 12.5 μg/mL CleanCap FLuc mRNA (5moU), N/P 12 (1611, 1719, 1722, 1732), N/P 24 (1614), N/P 18 (1621, 1747).
Where [10] appears, read: PEGylated pDNA polyplexes 25% PEG, 10 μg/mL pCMVLuc.
Setting [11] is: Targeted pDNA polyplexes 12.5% PEG 2k, 12.5% PEG-GE11, 10 μg/mL pCMVLuc.
[12] abbreviates: Unmodified pDNA polyplexes 0%, 10 μg/mL pCMVLuc.
The mark [13] stands for this setting: pDNA polyplexes, N/P 18, 10 μg/mL pCMVLuc.
[14] abbreviates: Cas9 mRNA/sgGFP1 polyplexes, N/P 18, combined nucleic acid 5.0 μg/mL.

Consider `CCCCCCCCCCCCN(CCCCCCCCCCCC)CCCCCCCC(=O)NCCCC[C@H](NC(=O)CCC(=O)NCCNCCNCCNCCNC(=O)[C@@H](N)CCCCNC(=O)CCCCCCCN(CCCCCCCCCCCC)CCCCCCCCCCCC)C(=O)O` [compound 1611, K(12Oc)-Stp-K(12Oc)], for which the “in vivo toxicity / tolerability of mRNA polyplexes” value in data set [1] is recorded as “good tolerability”.

With `CCCCCCCCN(CCCCCCCC)CCCCCCCC(=O)NCCCC[C@H](NC(=O)CCCCCCCN(CCCCCCCC)CCCCCCCC)C(=O)NCCSSCCNC(=O)CCC(=O)NCCCC[C@H](NC(=O)CCC(=O)NCCSSCCNC(=O)[C@H](CCCCNC(=O)CCCCCCCN(CCCCCCCC)CCCCCCCC)NC(=O)CCCCCCCN(CCCCCCCC)CCCCCCCC)C(=O)NCCNCCNCCNCCNC(=O)CCC(=O)O` [compound 1792, [(8Oc)2)-K-ssbb]2-K-Stp], in the data set on HeLa cells, the “cell viability (relative metabolic activity, CellTiter Glo)” value was “significantly improved cell viability”.

On to “K(8Oc)2-Stp2-K(8Oc)-K(8Oc) [compound 1731]”, for which, in data set [2] (setting [6]), the Z-average is recorded as 67.5 nm and the Zeta potential is listed as 37.5 mV.

Consider “K(8Oc)2-Stp-K(8Oc)-K(8Oc) [compound 1620]”, for which, in data set [2] (setting [6]), the Pdl is 0.130, the Z-average was 134.3 nm and the Zeta potential worked out at 22.7 mV. Besides, in data set [2] (setting [7]), the Pdl is 0.152, the Z-average was determined as 271.1 nm and the Zeta potential is −1.41 mV.

K(12Bu)-Stp-K(12Bu) [compound 1763]: in the data set on N2a cells [3], the “mCherry mRNA/eGFP pDNA co-expression (co-delivery efficiency)” value is given as “most potent structures”.

On to K(12He)-Stp-K(12He) [compound 1765], for which the “mCherry mRNA/eGFP pDNA co-expression (co-delivery efficiency)” value in the data set with N2a cells [3] is “most potent structures”.

As for K(12Oc)2-Stp2 [compound 1710], the “dose dependence of pDNA transfection efficiency” value with N2a cells [4] is listed as “good performance only at the highest dose”. In data set [2] (setting [8]), this compound registered a Pdl of 0.246 ± 0.024, a Z-average of 111.8 ± 11.4 nm and a Zeta potential of 15.6 ± 2.1 mV.

Take “K(12Oc)2-Stp2-K(12Oc)-K(12Oc) [compound 1722]”: in the data set with N2a cells [4], the “transfection efficiency (luciferase expression) of pDNA polyplexes” value is listed as “most potent pDNA carriers”. Also, the “transfection efficiency (luciferase expression) of mRNA polyplexes” value in the data set with N2a cells [5] (24 h, dose titration 63, 31, 16 ng mRNA/well, vs succPEI and 1218) is recorded as “dose-independent transfection efficiency”. In data set [2] (setting [9]), this compound returned a Pdl of 0.339, a Z-average of 92.5 nm and a Zeta potential of 44.4 mV.

On to “K(12Oc)2-Stp2-K[K(12Oc)2] [compound 1717]”, for which the “transfection efficiency (luciferase expression) of pDNA polyplexes” value in the data set on N2a cells [4] is given as “most potent pDNA carriers”.

On to K(12Oc)2-Stp [compound 1614], for which, in data set [2] (setting [9]), the Pdl was 0.223, the Z-average came out at 111.6 nm and the Zeta potential is recorded as 15.7 mV.

As to “K(12Oc)2-Stp-K(12Oc)-K(12Oc) [compound 1612]”, in data set [2] (setting [7]), the Pdl amounted to 0.273, the Z-average is given as 275.8 nm and the Zeta potential was determined as 1.88 mV.

As to “K(12Oc)-(^εK-^εK-6-Ahx)-K(12Oc) [compound 1747]”, in data set [2] (setting [9]), the Pdl was found to be 0.146, the Z-average came out at 91.1 nm and the Zeta potential is 17.5 mV.

Consider “K(DodOc)2-Stp2-K(DodOc)-K(DodOc) [compound 1725]”, for which the “transfection efficiency of pDNA polyplexes, DodOc (amide) control vs LAF analog” value in the data set on N2a cells [4] (N/P 12, 200 ng pCMVLuc/well) is reported as “ineffective”. The “transfection efficiency of mRNA polyplexes, DodOc (amide) control vs LAF analog” value in the data set with N2a cells [5] (N/P 12, 62.5 ng mRNA/well) is listed as “ineffective”.

As to K[K2-K(12Oc)2]2 [compound 1851], the “RLU values relative to Stp2 analog 1717” value in the data set on N2a cells [5] (15 ng mRNA/well) was “around 10 fold”. In the data set on N2a cells [5] (all tested N/P ratios, 50 and 15 ng mRNA/well), the “transfection efficiency of mRNA polyplexes vs Stp2 analog 1717” value was “outperformed its Stp2 analog”.

“K[K(12Oc)2]-Stp-K[K(12Oc)2] [compound 1720]”: in data set [2] (setting [7]), the Pdl is recorded as 0.196, the Z-average stood at 209.8 nm and the Zeta potential was found to be 0.70 mV.

In the case of K[K[8Oc)2]2-Stp2 [compound 1730], the “RLU values of targeted polyplexes in comparison to shielded polyplexes” value in the data set with Huh7 cells (N/P 12, pDNA dose 50 ng/well) is 32.8 fold. Also, the “RLU values of targeted polyplexes in comparison to shielded polyplexes” value in the data set with Huh7 cells (N/P 12, pDNA dose 100 ng/well) amounted to 25.5 fold. In data set [2] (setting [10]), the Pdl is reported as 0.22, the Size came to 100 and the Zeta worked out at 2.0. In data set [2] (setting [11]), this compound returned a Pdl of 0.17, a Size of 125 and a Zeta of 2.0. In data set [2] (setting [12]), this compound displayed a Pdl of 0.21, a Size of 109 and a Zeta of 15.9. In addition, in data set [2] (setting [13]), the PDI was 0.10 ± 0.01, the Z-average is listed as 95.3 ± 1.6 nm and the Zeta potential is 21.7 ± 0.6 mV.

Consider K[K[12Oc)2]2-Stp [compound 1613], for which, in data set [2] (setting [7]), the Pdl is reported as 0.159, the Z-average is recorded as 176.8 nm and the Zeta potential is given as −3.03 mV.

Stp-K[K(12Oc)2]-Stp [compound 1715]: in the data set on N2a cells [4], the “dose dependence of pDNA transfection efficiency” value is on record as “good performance only at the highest dose”. In addition, in data set [2] (setting [8]), the Pdl worked out at 0.100 ± 0.010, the Z-average was determined as 89.8 ± 1.4 nm and the Zeta potential amounted to 24.47 ± 1.4 mV.

In the case of “[K(8Oc)]2-Stp2-[K(8Oc)]2 [compound 1745]”, in data set [2] (setting [14]), the Pdl is 0.266 ± 0.046, the Z-average worked out at 99.4 ± 7.9 nm and the Zeta potential was 11.9 ± 1.6 mV.

With “[K(12He)]2-Stp2-[K(12He)]2 [compound 1760]”, in data set [1] (tumors, lungs, liver, spleen), the “in vivo luciferase expression of mRNA polyplexes” value is “great in vivo performance”.

Take “[K(12Oc)]2-Stp-[K(12Oc)]2 [compound 1718]”: in data set [2] (setting [6]), the Pdl is 0.223, the Z-average was found to be 107.5 nm and the Zeta potential came out at 36.0 mV. Besides, in data set [2] (setting [7]), the Pdl is recorded as 0.140, the Z-average is listed as 198.1 nm and the Zeta potential was found to be 0.03 mV.

(Values after patent US20260159854A1, “NOVEL CARRIERS FOR NUCLEIC ACID AND/OR PROTEIN DELIVERY” (LUDWIG-MAXIMILIANS-UNIVERSITÄT MÜNCHEN, priority 2022, published 2026).)
